Several values for one entry are separate records, joined by “and”; a condition that tells them apart may be missing. Equal entries are not always repeated. Where two headings read alike, the source gives them in different places.
Assays:
[1] = tested on: MV4-11 cells; experiment: In vitro cell viability assay (CellTiter-Glo); type: cell-based, human; details: Homo sapiens
Method: (§1) All cell lines were grown and treated in RPMI 1640 or Dulbecco’s modified Eagle medium (Sigma, St. Louis, MO) supplemented with 10% fetal bovine serum (Gibco) or 10% human serum (Sigma) and maintained in a humidified incubator at 5% CO2 and 37 °C. DLD-1, MV4-11, NCI-H929 (all ATCC, Manassas, VA, USA) and AMO-1 (DSMZ, Braunschweig, Germany) cells were plated 4000 cells per well in 384-well tissue culture plates and treated with compounds of interest for 24 h at 37 °C, 5% CO2 humidified incubator. Each concentration was tested in duplicate at least 3 separate times. Adherent cells were allowed to adhere overnight prior to treatment. Alternatively, AMO-1 or NCI-H929 cells were treated with ABBV-467 for the indicated contact times (1–24 h) at 37 °C in a 5% CO2 humidified incubator and washed 3 times with compound-free media prior to incubation for the remainder of a 24-h treatment period. Cell viability was subsequently determined using CellTiter-Glo (Promega, Madison, WI, USA) according to the manufacturer’s instructions.
(§2) For in vitro viability assays, mean EC50 and EC90 values were determined from the resulting dose-response curves from at least 3 independent experiments, and depict the mean ± standard error of the mean.

[2] = tested on: DLD-1 cells; experiment: In vitro cell viability assay (CellTiter-Glo); type: cell-based, human
Method: as §1, §2

[3] = tested on: H929 cells; experiment: In vitro cell viability assay (CellTiter-Glo); type: cell-based, human; details: Homo sapiens
Method: as §1, §2
(§3) Fig. 2 Apoptosis induced by ABBV-467 is mechanism based and induces cell death in MCL-1-dependent cell lines after short target engagement periods. H929 cells were treated with ABBV-467 in the presence or absence of the pan-caspase inhibitor z-VAD-fmk (50 µM) and the impact on caspase-3/7 activation (a), mitochondrial membrane potential (ΔΨm; b), and apoptosis (c) determined. Alternatively, BAK-deficient SKBR3 cells were treated with ABBV-467 for 24 h and the impact on cell viability compared with the parental cell line, determined by CellTiter-Glo. Inset depicts a western blot of BAK and BAX expression in SKBR3 cell variants using GAPDH as a loading control. Each of the 3 proteins were probed on separate blots (d). Data in (a–d) are presented as the mean ± standard error of the mean. H929 and AMO-1 cells were treated with ABBV-467 at the indicated concentrations and the impact on caspase-3/7 activation and viability (DRAQ7-positive) cells determined over time by Incucyte®. Data are presented as the mean ± standard deviation (e). H929 or AMO-1 cells were cultured in media containing 10% human serum and treated with ABBV-467 for the indicated contact times. Cells were subsequently washed 3 times with drug-free media and incubated in drug-free media for the remainder of the 24-h treatment period at 37 °C before cell viability was determined by CellTiter-Glo. Mean EC50 and EC90 values were determined from the resulting dose-response curves from at least 3 independent experiments, each assessed in quadruplicate, and depict the mean ± standard error of the mean. Presented ABBV-467 dose-response curves in H929 and AMO-1 cells were compiled from at least 3 independent experiments (f).

[4] = tested on: AMO-1 cells; experiment: In vitro cell viability assay (CellTiter-Glo); type: cell-based, human; details: Homo sapiens
Method: as §1, §2, §3

[5] = molecular target: T1, BCL2-A1 (Homo sapiens, UniProt Q16548); experiment: Time-resolved FRET binding assay
T1 sequence (Q16548 1-175): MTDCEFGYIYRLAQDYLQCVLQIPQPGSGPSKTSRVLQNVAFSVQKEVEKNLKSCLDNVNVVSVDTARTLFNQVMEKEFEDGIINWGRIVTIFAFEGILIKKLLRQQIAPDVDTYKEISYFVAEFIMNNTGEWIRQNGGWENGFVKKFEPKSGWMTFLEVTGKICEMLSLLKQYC
Method: (§4) Binding affinities for MCL-1, BCL-2, BCL-XL, BCL-W, and BCL2-A1 were determined using a time-resolved fluorescence resonance energy transfer (FRET) assay. Test compounds were serially diluted in DMSO starting at […] (20× starting concentration; 100% DMSO followed by a 1:10 dilution of the compound DMSO plate into assay buffer); 10 µL of the compound in 10% DMSO was then transferred into a 384-well plate (low-volume Corning #3673 assay plate). Glutathione S-transferase (GST)-tagged recombinant BCL-2, BCL-XL, MCL-1, BCL-W, or BCL2-A1 protein (1 nM each) were mixed with 100 nM Oregon Green™-labeled f-BAK peptide probe and 1 nM Tb-labeled anti-GST antibody were mixed. Then 10 µL of a 2× protein/probe/antibody mix was added to each well of increasing concentrations of test compound in assay buffer (20 mM potassium phosphate, pH 7.6, 50 mM NaCl, 1 mM ethylenediaminetetraacetic acid disodium salt dihydrate, 0.05% pluronic acid F-68, 1 mM DL-dithiothreitol) at room temperature (final concentrations listed in Supplementary Table S2). The samples were then mixed on a shaker for 1 min and incubated for an additional 1 h at room temperature. For each assay plate, a probe/antibody and protein/antibody/probe mixture were included as a negative and a positive control, respectively. Fluorescence was measured on the EnVision™ (Perkin Elmer) using a 340/35-nm excitation filter and 520/525- (F-Bak) and 495/510-nm (Tb-labeled anti-glutathione S-transferase [GST] antibody) emission filters. Dissociation constants were determined using Wang’s equation[35]. The time-resolved FRET assay can be performed in the presence of varying concentrations of human serum to determine apparent half-maximal inhibitory concentration after serum protein binding.

[6] = molecular target: T2, BCL-W (Homo sapiens, UniProt Q92843); experiment: Time-resolved FRET binding assay
T2 sequence (Q92843 1-193): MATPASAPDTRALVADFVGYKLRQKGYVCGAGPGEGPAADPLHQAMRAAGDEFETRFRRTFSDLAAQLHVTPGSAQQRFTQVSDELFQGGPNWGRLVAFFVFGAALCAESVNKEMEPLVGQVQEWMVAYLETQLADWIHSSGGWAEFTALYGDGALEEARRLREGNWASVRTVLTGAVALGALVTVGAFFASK
Method: as §4

[7] = molecular target: BCL-2 (Homo sapiens, UniProt P10415); experiment: Time-resolved FRET binding assay
Method: as §4

[8] = molecular target: BCL-XL (Homo sapiens, UniProt Q07817); experiment: Time-resolved FRET binding assay
Method: as §4

[9] = molecular target: human MCL-1 (Homo sapiens, UniProt Q07820); experiment: Time-resolved FRET binding assay
Method: as §4, with “Test” for “Binding affinities for MCL-1, BCL-2, BCL-XL, BCL-W, and BCL2-A1 were determined using a time-resolved fluorescence resonance energy transfer (FRET) assay. Test”

[10] = TR-FRET, arithmetic mean, read-out: Arithmetic Mean Ki, BCL-2
[11] = TR-FRET, individual determinations, read-out: Individual Ki, BCL-2
[12] = read-out: TR-FRET, Ki, nM BCL-2
[13] = TR-FRET, arithmetic mean, read-out: Arithmetic Mean Ki, BCL-XL
[14] = TR-FRET, individual determinations, read-out: Individual Ki, BCL-XL
[15] = read-out: TR-FRET, Ki, nM BCL-XL

human MCL-1, sequence (Q07820 whole entry): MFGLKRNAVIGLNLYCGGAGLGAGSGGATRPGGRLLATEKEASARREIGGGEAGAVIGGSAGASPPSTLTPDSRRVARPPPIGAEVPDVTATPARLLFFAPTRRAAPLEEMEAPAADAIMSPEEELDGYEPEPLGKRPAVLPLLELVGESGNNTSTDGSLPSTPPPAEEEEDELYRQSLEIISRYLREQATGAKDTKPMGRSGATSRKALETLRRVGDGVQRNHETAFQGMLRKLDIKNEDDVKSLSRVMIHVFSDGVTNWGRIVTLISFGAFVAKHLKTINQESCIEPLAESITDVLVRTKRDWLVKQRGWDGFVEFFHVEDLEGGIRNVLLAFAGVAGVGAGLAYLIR
BCL-2, sequence (P10415 whole entry): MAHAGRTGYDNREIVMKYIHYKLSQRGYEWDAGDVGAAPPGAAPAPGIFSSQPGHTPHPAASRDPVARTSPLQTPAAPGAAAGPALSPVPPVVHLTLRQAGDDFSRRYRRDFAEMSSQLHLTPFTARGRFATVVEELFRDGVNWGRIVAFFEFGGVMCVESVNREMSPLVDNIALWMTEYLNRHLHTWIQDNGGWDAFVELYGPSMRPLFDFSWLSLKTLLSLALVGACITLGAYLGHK
BCL-XL, sequence (Q07817 whole entry): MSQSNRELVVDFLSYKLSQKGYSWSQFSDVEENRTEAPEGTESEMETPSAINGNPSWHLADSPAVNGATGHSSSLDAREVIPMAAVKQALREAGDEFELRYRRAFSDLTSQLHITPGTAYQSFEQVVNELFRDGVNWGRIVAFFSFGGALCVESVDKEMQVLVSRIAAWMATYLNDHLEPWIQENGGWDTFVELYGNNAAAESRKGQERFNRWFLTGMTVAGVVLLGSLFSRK

## COc1ccccc1-c1nccc(COc2ccccc2CC(Oc2ncnc3sc(-c4ccc(F)cc4)c(-c4ccc(OCCN5CCN(C)CC5)c(Cl)c4C)c23)C(=O)O)n1 (stereo not shown) [Compound 1, reference compound]
[1]; MV4-11, 24 h, read-out: MV4-11 EC50 (nM, 10% FBS), 10% FBS, 24 h continuous treatment
  EC50: 10.9 nM
[1]; MV4-11, MV4-11, arithmetic mean, read-out: Arithmetic Mean EC50 µM
  EC50: 10.9 nM
[2]; DLD-1, individual determinations, listed as MIK665, read-out: Individual EC50
  EC50: > 1000 nM and > 10000 nM and 4770 nM and 3350 nM and 6620 nM and 4370 nM and 4270 nM and 5810 nM and 4060 nM
[2]; Homo sapiens, DLD-1, 24 h, read-out: DLD-1 EC50 (nM, 10% FBS), 10% FBS, 24 h continuous treatment
  EC50: 4750 nM
[3]; NCI-H929, 24 h, read-out: H929 EC50 (nM, 10% FBS), 10% FBS, 24 h continuous treatment
  EC50: 4.75 nM
[3]; NCI-H929, NCI-H929, arithmetic mean, read-out: Arithmetic Mean EC50 µM
  EC50: 4.75 nM
[4]; AMO1, 24 h, read-out: AMO-1 EC50 (nM, 10% FBS), 10% FBS, 24 h continuous treatment
  EC50: 2.06 nM
[4]; AMO1, AMO-1, arithmetic mean, read-out: Arithmetic Mean EC50 µM
  EC50: 2.06 nM
[5]; TR-FRET, arithmetic mean, read-out: Arithmetic Mean Ki, BCL2-A1
  Ki: > 468 nM
[5]; TR-FRET, individual determinations, read-out: Individual Ki, BCL2-A1
  Ki: > 468 nM
[5]; read-out: TR-FRET, Ki, nM BCL2-A1
  Ki: > 468 nM
[6]; TR-FRET, arithmetic mean, read-out: Arithmetic Mean Ki, BCL-W
  Ki: > 468 nM
[6]; TR-FRET, individual determinations, read-out: Individual Ki, BCL-W
  Ki: > 468 nM
[6]; read-out: TR-FRET, Ki, nM BCL-W
  Ki: > 468 nM
[7]; [10]
  Ki: 599 nM
[7]; [11]
  Ki: 319 nM and 376 nM and 955 nM and 745 nM
[7]; [12]
  Ki: 599 nM
[8]; [13]
  Ki: > 660 nM
[8]; [14]
  Ki: > 660 nM
[8]; [15]
  Ki: > 660 nM

## COc1ccccc1-c1nccc(COc2ccc3cc2CC(C(=O)O)Oc2ncnc4sc(-c5ccc(F)cc5)c(c24)-c2ccc(c(Cl)c2C)N(CCN2CCN(C)CC2)C3)n1 (stereo not shown) [Compound 2]
[7]; [10]
  Ki: > 1200 nM
[7]; [11]
  Ki: > 1200 nM
[7]; [12]
  Ki: > 1200 nM
[8]; [13]
  Ki: > 660 nM
[8]; [14]
  Ki: > 660 nM
[8]; [15]
  Ki: > 660 nM
[9]; TR-FRET, individual determinations, read-out: Individual Ki, MCL1
  Ki: 2.48 nM and 5.01 nM and 9.14 nM
[9]; read-out: TR-FRET, Ki, nM MCL-1
  Ki: 5.54 nM
